The results in this text go back to patent US10947213B1 (Merck Patent GmbH, priority 2015, dated 2021).

Where a name gives a salt, the structure may show the parent alone.

This experiment concerns the target T1, TLR7/NFKb HEK cells (Homo sapiens, UniProt Q9NYK1).
T1 construct: expressed in transfected cells; host or cells: HEK cells (TLR7/NFKb reporter line)
T1 sequence (Q9NYK1 27-1049): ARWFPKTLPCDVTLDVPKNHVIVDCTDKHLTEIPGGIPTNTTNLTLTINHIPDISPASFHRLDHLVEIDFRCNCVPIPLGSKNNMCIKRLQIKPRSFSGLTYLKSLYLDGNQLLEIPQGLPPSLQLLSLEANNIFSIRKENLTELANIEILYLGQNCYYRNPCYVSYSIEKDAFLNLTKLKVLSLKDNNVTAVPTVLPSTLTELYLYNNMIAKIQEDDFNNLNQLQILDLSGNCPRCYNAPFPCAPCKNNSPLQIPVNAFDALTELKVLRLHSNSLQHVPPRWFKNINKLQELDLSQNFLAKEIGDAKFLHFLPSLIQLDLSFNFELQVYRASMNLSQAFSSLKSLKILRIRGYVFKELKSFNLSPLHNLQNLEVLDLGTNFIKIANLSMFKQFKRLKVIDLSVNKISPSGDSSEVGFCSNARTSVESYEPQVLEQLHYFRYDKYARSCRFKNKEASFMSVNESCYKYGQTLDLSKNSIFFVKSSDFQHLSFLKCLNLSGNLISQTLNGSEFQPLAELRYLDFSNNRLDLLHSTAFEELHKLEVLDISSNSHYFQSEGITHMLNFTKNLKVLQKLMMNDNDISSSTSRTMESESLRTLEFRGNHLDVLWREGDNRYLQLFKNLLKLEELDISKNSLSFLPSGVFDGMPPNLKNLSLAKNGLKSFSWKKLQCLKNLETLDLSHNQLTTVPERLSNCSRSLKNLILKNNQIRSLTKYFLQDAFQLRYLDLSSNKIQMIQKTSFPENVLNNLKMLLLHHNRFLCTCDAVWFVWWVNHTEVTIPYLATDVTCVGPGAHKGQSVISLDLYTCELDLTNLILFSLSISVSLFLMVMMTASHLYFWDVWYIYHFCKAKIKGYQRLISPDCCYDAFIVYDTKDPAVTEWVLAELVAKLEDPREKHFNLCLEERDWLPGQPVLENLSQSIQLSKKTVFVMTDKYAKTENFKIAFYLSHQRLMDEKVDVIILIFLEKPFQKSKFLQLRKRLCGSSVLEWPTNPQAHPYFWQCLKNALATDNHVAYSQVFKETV
Put plainly: HEK Cell Assay (TLR7/NFKb reporter, Steady-Glo luciferase readout). The experiment is classed as cell-based. Conditions: 30 min compound preincubation, then R*48 agonist for 5 hours, read-out: Potency. Put shortly: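 Steady-Glo luminescence after 5 h stimulation with R*48 agonist, following 30 min compound preincubation. Assay run in HEK cells carrying a TLR7/NFKb luciferase reporter, plated at 5000 cells/well and grown 24 h at 37° C (10% CO2) before treatment.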

`Cc1ncc(N2C[C@@H](C)C[C@@H](NC(=O)CCC(N)=O)C2)c2cccnc12` [Compound 564, N-[(3R,5S)-5-Methyl-1-(8-methyl-[1,7]naphthyridin-5-yl)-piperidin-3-yl]-succinamide]: the IC50 is more than 10 µM.
Under `C[C@H]1C[C@@H](NC(=O)C2CCN(C)C2)CN(c2ccc(C(F)(F)F)c3ncccc23)C1` (stereo partly drawn) [Compound 248, 1-methyl-N-[(3R,5S)-5-methyl-1-[8-(trifluoromethyl)quinolin-5-yl]piperidin-3-yl]pyrrolidine-3-carboxamide] stands less than 1 µM; under `C[C@H]1C[C@@H](NC(=O)CN2CC(O)C2)CN(c2ccc(C#N)c3nccnc23)C1` [Compound 270], less than 1 µM.
The same measure for `CCN(CC)CCNC(=O)C1CCN(c2ccnc3nccnc23)CC1` [Compound 379]: 1 to 10 µM.
Turning to `O=C(N[C@@H]1CNC[C@@H]1F)C1CCN(c2ccc(C(F)(F)F)c3ncccc23)CC1` [Compound 464, 1-(8-Trifluoromethyl-quinolin-5-yl)-piperidine-4-carboxylic acid ((3R,4S)-4-fluoro-pyrrolidin-3-yl)-amide hydrochloride], the IC50 was less than 1 µM.
As for `Cc1ccc(N2C[C@H](N)C[C@H](C(F)(F)F)C2)c2cccnc12` [Compound 586, (3R,5S)-1-(8-Methyl-quinolin-5-yl)-5-trifluoromethyl-piperidin-3-ylamine hydrochloride], the IC50 is less than 1 µM.
The same measure for `C[C@H]1C[C@@H](NC(=O)C(N)C2CC2)CN(c2ccc(C(F)(F)F)c3nccnc23)C1` (stereo partly drawn) [Compound 294, 2-amino-2-cyclopropyl-N-[(3R,5S)-5-methyl-1-[8-(trifluoromethyl)quinoxalin-5-yl]piperidin-3-yl]acetamide]: less than 1 µM; for `C[C@@H]1CN(c2ccc(C#N)c3nccnc23)C[C@H](C(=O)NC2CCN(C)CC2)O1` [Compound 468, (2R,6R)-4-(8-cyanoquinoxalin-5-yl)-6-methyl-N-(1-methylpiperidin-4-yl)morpholine-2-carboxamide]: less than 1 µM.
The same measure for `N#Cc1ccc(N2C[C@@H](N)C[C@@H](C(F)(F)F)C2)c2cccnc12` (relative stereo) [Compound 71, cis-5-(3-Amino-5-trifluoromethyl-piperidin-1-yl)-quinoline-8-carbonitrile]: less than 1 µM.
With `CC(C(=O)N[C@@H]1C[C@H](C)CN(c2ccc(C(F)(F)F)c3ncccc23)C1)N1CC(O)C1` (stereo partly drawn) [Compound 285, 2-(3-hydroxyazetidin-1-yl)-N-[(3R,5S)-5-methyl-1-[8-(trifluoromethyl)quinolin-5-yl]piperidin-3-yl]propanamide], the IC50 was less than 1 µM.
Under `C[C@H]1C[C@@H](NC(=O)CC2(O)CCCCC2)CN(c2ccc(C(F)(F)F)c3ncccc23)C1` [Compound 484, 2-(1-Hydroxy-cyclohexyl)-N-[(3R,5S)-5-methyl-1-(8-trifluoromethyl-quinolin-5-yl)-piperidin-3-yl]-acetamide] stands less than 1 µM; under `C[C@H]1C[C@@H](NCC#N)CN(c2ccnc3nccnc23)C1` [Compound 39, 2-((3R,5S)-5-methyl-1-(pyrido[2,3-b]pyrazin-8-yl)piperidin-3-ylamino)acetonitrile hydrochloride], 1 to 10 µM; under `C[C@H]1C[C@@H](NC(=O)CN2CCC(F)(F)CC2)CN(c2ccc(C(F)(F)F)c3nccnc23)C1` [Compound 354, 2-(4,4-difluoropiperidin-1-yl)-N-[(3R,5S)-5-methyl-1-[8-(trifluoromethyl)quinoxalin-5-yl]piperidin-3-yl]acetamide], 1 to 10 µM.
`N[C@H]1C[C@@H](C2CC2)CN(c2ccc(C(F)(F)F)c3ncccc23)C1` (relative stereo) [Compound 331, cis-5-cyclopropyl-1-[8-(trifluoromethyl)quinolin-5-yl]piperidin-3-amine]: the IC50 is less than 1 µM.
Under `C[C@H]1C[C@@H](NC(=O)[C@H](C)N)CN(c2ccnc3nccnc23)C1` [Compound 27, (S)-2-amino-N-((3R,5S)-5-methyl-1-(pyrido[2,3-b]pyrazin-8-yl)piperidin-3-yl)propanamide] stands 1 to 10 µM; under `C[C@H]1C[C@@H](N)CN(c2ccc(C#N)c3nccnc23)C1` [Compound 12, 8-((3R,5S)-3-amino-5-methylpiperidin-1-yl)quinoxaline-5-carbonitrile], less than 1 µM; under `C[C@H]1C[C@@H](NC(=O)CN(C)C)CN(c2ccc(C#N)c3nccnc23)C1` [Compound 32, N-((3R,5S)-1-(8-cyanoquinoxalin-5-yl)-5-methylpiperidin-3-yl)-2-(dimethylamino)acetamide], less than 1 µM.
`C[C@@H]1CN(c2ccnc3nccnc23)C[C@H](CN2CCC(N3CCOCC3)CC2)O1` [Compound 60, (2R,6S)-2-methyl-6-((4-morpholinopiperidin-1-yl)methyl)-4-(pyrido[2,3-b]pyrazin-8-yl)morpholine]: the IC50 is 1 to 10 µM.
Consider `C[C@@H]1CN(c2ccnc3nccnc23)C[C@H](C)O1` [Compound 43, (2S,6R)-2,6-dimethyl-4-(pyrido[2,3-b]pyrazin-8-yl)morpholine], for which the IC50 is more than 10 µM.
Under `C[C@H]1C[C@@H](NC(=O)C2CCN(C)C2)CN(c2ccc(C(F)(F)F)c3nccnc23)C1` (stereo partly drawn) [Compound 258, 1-methyl-N-[(3R,5S)-5-methyl-1-[8-(trifluoromethyl)quinoxalin-5-yl]piperidin-3-yl]pyrrolidine-3-carboxamide] stands less than 1 µM; under `FC(F)(F)CCN[C@H]1C[C@@H](C(F)(F)F)CN(c2ccnc3nccnc23)C1` (relative stereo) [Compound 96, cis-1-[pyrido[2,3-b]pyrazin-8-yl]-5-(trifluoromethyl)-N-(3,3,3-trifluoropropyl)piperidin-3-amine hydrochloride], more than 10 µM.
Take `N#Cc1ccc(N2CC(NC(=O)C(N)C(F)(F)F)CC(C3CC3)C2)c2nccnc12` (single isomer, unassigned) [Compound 178]: the IC50 is 1 to 10 µM.
With `COc1cccc(NCC(=O)NCC2CCN(c3ccnc4nccnc34)CC2)c1` [Compound 404, 2-(3-Methoxy-phenylamino)-N-(1-pyrido[2,3-b]pyrazin-8-yl-piperidin-4-ylmethyl)-acetamide], the IC50 is more than 10 µM.
Under `C[C@H]1C[C@@H](NC(=O)CO)CN(c2ccnc3nccnc23)C1` [Compound 15, 2-hydroxy-N-((3R,5S)-5-methyl-1-(pyrido[2,3-b]pyrazin-8-yl)piperidin-3-yl)acetamide] stands more than 10 µM; under `Cc1ccc(N2C[C@@H](C)C[C@@H](NC(=O)CN3CCOCC3)C2)c2cccnc12` [Compound 466, N-[(3R,5S)-5-Methyl-1-(8-methyl-quinolin-5-yl)-piperidin-3-yl]-2-morpholin-4-yl-acetamide], 1 to 10 µM.
Under `C[C@H]1C[C@@H](NC(=O)C2(N)CC2)CN(c2ccnc3nccnc23)C1` [Compound 30, 1-amino-N-((3R,5S)-5-methyl-1-(pyrido[2,3-b]pyrazin-8-yl)piperidin-3-yl)cyclopropanecarboxamide hydrochloride] stands more than 10 µM.
The same measure for `C[C@H]1C[C@@H](N)CN(c2ccc(O)c3ncccc23)C1` [Compound 200, 5-[(3R,5S)-3-amino-5-methylpiperidin-1-yl]quinolin-8-ol hydrochloride]: less than 1 µM; for `CC(C(=O)N[C@@H]1C[C@H](C)CN(c2ccc(C(F)(F)F)c3nccnc23)C1)N1CC(N)C1` (single isomer, unassigned) [Compound 369]: less than 1 µM; for `CCC(C)CC(=O)N[C@@H]1C[C@H](C)CN(c2ccnc3nccnc23)C1` (single isomer, unassigned) [Compound 153]: 1 to 10 µM.
Take `CN1CCC(NC2CC(C(F)(F)F)CN(c3ccc(C#N)c4nccnc34)C2)C1=O` (single isomer, unassigned) [Compound 224]: the IC50 lay in the range of 1 to 10 µM.
The same measure for `C[C@H]1C[C@@H](NC(=O)CC(C)(C)O)CN(c2ccc(C(F)(F)F)c3ncccc23)C1` [Compound 485]: less than 1 µM; for `CCN(CC)CCNCC1CCN(c2ccnc3cc(C(F)(F)F)ccc23)CC1` [Compound 376, N,N-Diethyl-N′-[1-(7-trifluoromethyl-quinolin-4-yl)-piperidin-4-ylmethyl]-ethane-1,2-diamine]: 1 to 10 µM.
